# Data: PubChem BioAssay (NCI)
#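 Assay format: 96-well plates, 48-hour exposure. At the GI50, growth is halved. TGI is the concentration that stops growth completely.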
# Key:
# Assay in all cases: growth of human tumour cells (NCI), 48 h
# [1] = test system: U251 CNS
# [2] = test system: SW-620 colon
# [3] = test system: OVCAR-8 ovarian
# [4] = test system: SF-268 CNS
# [5] = test system: NCI-H23 lung
# [6] = test system: SF-539 CNS
# [7] = test system: COLO 205 colon
# [8] = test system: SN12C renal
# [9] = test system: SK-MEL-2 melanoma
# [10] = test system: M14 melanoma
# [11] = test system: LOX IMVI melanoma
SMILES,GI50 [1] [µM],TGI [1] [µM],GI50 [2] [nM],TGI [2] [µM],GI50 [3] [µM],TGI [3] [µM],GI50 [4] [µM],TGI [4] [µM],GI50 [5] [µM],TGI [5] [µM],GI50 [6] [nM],TGI [6] [µM],GI50 [7] [nM],TGI [7] [µM],GI50 [8] [nM],TGI [8] [µM],GI50 [9] [µM],TGI [9] [µM],TGI [10] [µM],TGI [11] [µM]
C[C@]12CCc3sc(Nc4ccc(O)cc4)nc3C1=CC[C@@H]1[C@@H]2CC[C@]2(C)C(=O)CC[C@@H]12,3.06,21.9,2080,4.73,3.22,> 100,3.37,> 100,3.96,> 100,1760,3.59,2000,3.9,2910,> 100,6.98,> 100,–,–
O=C(O)CC1(CC(=O)O)Nc2ccccc2SC1=O,–,> 100,–,> 100,–,> 100,–,> 100,–,> 100,–,–,–,> 100,–,> 100,–,> 100,> 100,> 100
CCSc1nc(=[N+]2CCCC2)ss1,–,> 100,–,> 100,–,> 100,–,> 100,–,> 79.9,–,> 85.6,–,> 49.3,–,> 100,–,> 100,> 100,55.2
Clc1nc(NCCc2ccccc2)c2ncn(-c3ccccc3)c2n1,–,48.6,–,> 100,–,90.6,–,> 100,–,77.3,–,–,–,50.6,–,85.4,–,19.9,49.7,43.1
Cc1ccc(Nc2nc(NS(=O)(=O)c3cc(C(=O)Nc4ccc(Cl)cc4)c(Cl)cc3S)n[nH]2)cc1,–,> 100,–,> 100,–,> 100,–,> 100,–,> 100,–,> 100,–,> 100,–,> 100,–,–,> 100,> 100
O=C1OCC/C1=C/c1ccc(N=Nc2c(O)ccc3ccccc23)cc1,–,39.2,–,40,–,72,–,44.7,–,44.8,–,36.6,–,58,–,45.1,–,55.2,66.3,–
CN1CCN(c2cc(-c3cc4ccccc4o3)oc(=O)c2C#N)CC1,–,> 100,–,> 100,–,> 100,–,> 100,–,> 100,–,> 100,–,> 100,–,> 100,–,> 100,> 100,> 100
Cc1ccc2c(C)c3ccc4ccccc4c3c[n+]2c1,–,23,–,> 82.1,–,36.9,–,14.8,–,38.6,–,33.7,–,27.2,–,24,–,29.5,33.9,99.8
CC1OC1C(=O)C1(O)C(C)C(O)C23OC2(C(O)c2c(O)cccc2C3=O)C1O (stereo unspecified),–,1.09,–,1.21,–,1.72,–,0.525,–,0.543,–,0.276,–,0.223,–,0.343,–,0.413,–,0.629
